Consider one compound from PMC5090206, “Fluselenamyl: A Novel Benzoselenazole Derivative for PET Detection of Amyloid Plaques (Aβ) in Alzheimer’s Disease” (Scientific Reports, 2016).

The data set addresses Aβ plaques (Homo sapiens, UniProt P05067). In words: Real time multiphoton imaging in APP+/−/PS1+/− mice. The format is in vivo. The conditions noted are these: 2 mg/kg intravenous. From the text:
For assessing viability of molecules as imaging probes in vivo[48], various imaging modalities, such as nuclear imaging (PET/SPECT), optical imaging, and MRI have been used to investigate simultaneously distribution kinetics and target-receptor specificity. While the resolution of PET and MRI allow in vivo imaging at relatively moderate resolution, the multiphoton microscopy enables evaluation of kinetics at a sub-micrometer resolution[49]. […] The generation of various transgenic (tg) animals overexpressing mutant human APP and/or PS1 and PS2, tg APP mice expressing ApoE isoforms including those for Tau offer attractive models for unravelling biochemical pathways prevalent in pathophysiology of AD[50]. […] Literature precedents indicate Aβ deposition by 2 months of age, with gradual quantitative increase at six months^55. […] Compared with barely detectable auto-fluorescence levels prior to imaging transgenic APP^+/−/PS1^+/− mice (Fig. 8, first panel), bright fluorescence appeared almost instantaneously following administration of 5. Fluorescence first appeared in large and small blood vessels within the brain. Within minutes (10 min), the brain parenchyma was uniformly bright in fluorescence, and Aβ deposits were labeled. […]
For imaging 5 labeled plaques, two-photon fluorescence was generated with 800 nm excitation, and fluorescent emission was detected in the range of 435-485nm. […]

Sequence of Aβ plaques (P05067 672-711 limits assumed): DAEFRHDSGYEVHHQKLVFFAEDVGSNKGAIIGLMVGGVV

`CN(C)c1ncc(/C=C\c2nc3cc(OCCF)ccc3[se]2)cn1` [compound 5, (Z)-5-(2-(5-(2-fluoroethoxy)benzo[d][1,3]selenazol-2-yl)vinyl)-N,N-dimethylpyrimidin-2-amine]: the “time at which labeling of parenchymal plaques peaked” value is given as “approximately 10 min”.
